Measurements reported in US9023865B2, “Compounds that are ERK inhibitors” (Merck Sharp & Dohme Corp., priority 2011, dated 2015).

What follows are molecules tested against Active Human ERK2 (hERK2) (Homo sapiens (Human), UniProt P28482) (assay: Active Human ERK2 (hERK2) Activity Assay (IMAP-FP)). Conditions: phosphorylated active hERK2, 30 μM ATP; average; read-out: ERK 2 Human average IC50.
Format: biochemical
Procedure, shortened: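 Phosphorylation by activated human ERK2 (0.5 nM) at 30 μM ATP, peptide substrate 900 nM unlabeled with 80 nM labeled, proceeds 60 min. IMAP beads stop the reaction; after 60 min equilibration, product is measured by fluorescence polarization.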

Sequence of Active Human ERK2 (hERK2) (P28482 whole entry): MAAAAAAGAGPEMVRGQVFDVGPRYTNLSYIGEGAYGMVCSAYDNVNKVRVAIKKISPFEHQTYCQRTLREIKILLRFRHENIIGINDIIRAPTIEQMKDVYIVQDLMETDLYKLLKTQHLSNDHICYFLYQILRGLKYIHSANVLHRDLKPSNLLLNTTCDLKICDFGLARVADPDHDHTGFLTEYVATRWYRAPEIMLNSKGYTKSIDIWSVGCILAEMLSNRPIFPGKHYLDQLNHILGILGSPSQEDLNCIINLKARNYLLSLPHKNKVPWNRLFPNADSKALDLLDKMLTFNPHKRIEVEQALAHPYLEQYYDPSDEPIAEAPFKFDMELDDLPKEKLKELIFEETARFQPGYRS

Row | SMILES | IC50 [nM]
1 | C[C@@H](NC(=O)Nc1cc2[nH]nc(-c3ccc(=O)n(C)c3)c2cn1)c1ccc(F)cc1 [Example 71, 1-[(1R)-1-(4-fluorophenyl)ethyl]-3-[3-(1-methyl-6-oxo-1,6-dihydropyridin-3-yl)-1H-pyrazolo[4,3-c]pyridin-6-yl]urea] | 0.159
2 | Cc1cc(-c2n[nH]c3cc(NC(=O)N(C)C4CCCCC4)ncc23)ccn1 [Example 576] | 2450
3 | Cc1cc(-c2n[nH]c3cc(NC(=O)NC4(c5ccccn5)CC4)ncc23)ccn1 [Example 351] | 91.9
4 | C[C@@H](NC(=O)Nc1cc2[nH]nc(-c3ccc(-n4ccnn4)cc3)c2cn1)c1ccc(F)cc1 [Example 242, 1-[(1R)-1-(4-fluorophenyl)ethyl]-3-{3-[4-(1H-1,2,3-triazol-1-yl)phenyl]-1H-pyrazolo[4,3-c]pyridin-6-yl}urea] | 5.54
5 | Cc1cc(-c2n[nH]c3cc(NC(=O)NC(CO)c4cc(F)cc(F)c4)ncc23)ccn1 (centres unmarked) [Example 365] | 0.603
6 | Cc1cc(-c2n[nH]c3cc(NC(=O)NCc4cncc(F)c4)ncc23)ccn1 [Example 51, 1-[(5-fluoropyridin-3-yl)methyl]-3-[3-(2-methylpyridin-4-yl)-1H-pyrazolo[4,3-c]pyridin-6-yl]urea] | 1
7 | CO[C@@H]1CN(C)C[C@H]1NC(=O)Nc1cc2[nH]nc(-c3ccc(F)cc3)c2cn1 [Example 318] | 30.2
8 | Cc1cc(-c2n[nH]c3cc(NC(=O)NCC4(Nc5ccccc5)CCOCC4)ncc23)ccn1 [Example 398] | 1.13
9 | Cc1cc(-c2n[nH]c3cc(NC(=O)N(C)Cc4cccnc4)ncc23)ccn1 [Example 46, 1-methyl-3-[3-(2-methylpyridin-4-yl)-1H-pyrazolo[4,3-c]pyridin-6-yl]-1-(pyridin-3-ylmethyl)urea] | 763
10 | O=C(Nc1cc2[nH]nc(-c3ccc(F)cc3)c2cn1)NC1CCOC1 (centres unmarked) [Example 612] | 12.6
11 | Cc1cc(-c2n[nH]c3cc(NC(=O)NCC4CCN(Cc5ccccc5)C4)ncc23)ccn1 (centres unmarked) [Example 410] | 2.65
12 | Cc1cc(-c2n[nH]c3cc(NC(=O)N[C@H]4CN(C)[C@H](C(F)F)[C@@H]4c4ccccc4)ncc23)ccn1 [Example 569] | 1.48
13 | CC(C)CC(O)CNC(=O)c1n[nH]c2cc(NC(=O)N[C@H](C)c3ccccc3)ncc12 (some centres unmarked) [Example 135] | 14.6
14 | Cc1cc(-c2n[nH]c3cc(NC(=O)NC4CCc5ccncc5C4)ncc23)ccn1 (centres unmarked) [Example 400] | 5.42
15 | Cc1cc(-c2n[nH]c3cc(NC(=O)NC4CCCOc5ccccc54)ncc23)no1 (centres unmarked) [Example 690] | 240
16 | Cc1cc(-c2n[nH]c3cc(NC(=O)NCC4CNC(=O)O4)ncc23)ccn1 (centres unmarked) [Example 466] | 2.81
17 | COC[C@@H](NC(=O)Nc1cc2[nH]nc(-c3cc(C)on3)c2cn1)c1ccc(F)cc1 [Example 688] | 5.39
18 | Cc1cc(-c2n[nH]c3cc(NC(=O)N[C@@H]4CN(C)C[C@H]4c4ccccc4C)ncc23)ccn1 [Example 215, 1-((3S,4R)-1-methyl-4-(o-tolyl)pyrrolidin-3-yl)-3-(3-(2-methylpyridin-4-yl)-1H-pyrazolo[4,3-c]pyridin-6-yl)urea] | 0.537
19 | CCCCNC(=O)Nc1cc2[nH]nc(C3CC3)c2cn1 [Example 156] | 42.2
20 | COc1ncccc1CNC(=O)Nc1cc2[nH]nc(-c3ccnc(C)c3)c2cn1 [Example 495] | 0.608
21 | C[C@@H](NC(=O)Nc1cc2[nH]nc(C(=O)N3CC(=O)N(C)C3)c2cn1)c1ccccc1 [Example 120] | 60.4
22 | Cc1cc(-c2n[nH]c3cc(NC(=O)N[C@@H]4CCCc5cccnc54)ncc23)ccn1 [Example 262, 1-[3-(2-methylpyridin-4-yl)-1H-pyrazolo[4,3-c]pyridin-6-yl]-3-[(8R)-5,6,7,8-tetrahydroquinolin-8-yl]urea] | 1.25
23 | Cc1cc(-c2n[nH]c3cc(NC(=O)NCc4ncccc4Cl)ncc23)ccn1 [Example 448] | 0.827
24 | Cc1cc(-c2n[nH]c3cc(NC(=O)N[C@@H](c4ccc(F)cc4)C(F)(F)F)ncc23)ccn1 [Example 280] | 9.83
25 | Cc1cc(-c2n[nH]c3cc(NC(=O)NC4CCCC(Oc5cccc(F)c5)C4)ncc23)ccn1 (centres unmarked) [Example 658] | 66.9
26 | Cc1cc(-c2n[nH]c3cc(NC(=O)N[C@@H]4CCS(=O)(=O)c5ccccc54)ncc23)ccn1 [Example 275] | 1.61
27 | COCCN(C)c1ncc(-c2n[nH]c3cc(NC(=O)N[C@H](C)c4ccccc4)ncc23)cn1 [Example 293] | 24.3
28 | Cc1cc(-c2n[nH]c3cc(NC(=O)N[C@H](CN(C)C)c4ccccc4)ncc23)ccn1 [Example 482] | 0.29
29 | Cc1cc(-c2n[nH]c3cc(NC(=O)N[C@H](C)C4CCCCC4)ncc23)ccn1 [Example 575] | 1.2
30 | C[C@@H](NC(=O)Nc1cc2[nH]nc(C3CCCC3)c2cn1)c1ccccc1 [Example 653] | 4.16

The remaining molecules from weak to strong by IC50, led by results:

Row | IC50 [nM] | SMILES
31 | 2290 | Cc1cc(-c2n[nH]c3cc(NC(=O)N4CCN(c5ccc(F)cc5)C[C@H]4C)ncc23)ccn1 [Example 288]
32 | 2240 | Cc1cc(-c2n[nH]c3cc(NC(=O)N[C@H](C(=O)O)C(C)C)ncc23)ccn1 [Example 452]
33 | 723 | Cc1cc(-c2n[nH]c3cc(NC(=O)N[C@@H](C)c4ccc(Cl)c(C)c4)ncc23)ccn1 [Example 340]
34 | 351 | Cc1cc(-c2n[nH]c3cc(NC(=O)N[C@H]4CN[C@H](c5ccccc5)C4)ncc23)ccn1 [Example 374]
35 | 327 | COC(=O)C1CC1c1n[nH]c2cc(NC(=O)N[C@H](C)c3ccccc3)ncc12 (some centres unmarked) [Example 642]
36 | 251 | C[C@@H](NC(=O)Nc1cc2[nH]nc(C(N)C(F)(F)F)c2cn1)c1ccccc1 (stereo partly drawn) [Example 563, 1-(3-(1-amino-2,2,2-trifluoroethyl)-1H-pyrazolo[4,3-c]pyridin-6-yl)-3-((R)-1-phenylethyl)urea]
37 | 59 | Cc1cc(-c2n[nH]c3cc(NC(=O)NCc4ccc(-c5ncc[nH]5)cc4)ncc23)ccn1 [Example 371]
38 | 44.5 | CC(C)CN(C)c1ncc(-c2n[nH]c3cc(NC(=O)N[C@H](C)c4ccc(F)cc4)ncc23)cn1 [Example 309]
39 | 40.9 | Cc1ccc(C2(NC(=O)Nc3cc4[nH]nc(-c5ccnc(C)c5)c4cn3)CC2)cc1 [Example 342]
40 | 30.9 | Cc1cc(-c2n[nH]c3cc(NC(=O)NCC4COC4)ncc23)ccn1 [Example 588]
41 | 23.5 | Cc1cc(-c2n[nH]c3cc(NC(=O)N[C@H](COCC4CC4)c4ccccc4)ncc23)no1 [Example 699]
42 | 11.2 | O=C(NCc1ccccc1)Nc1cc2[nH]nc(C3CCC3)c2cn1 [Example 147]
43 | 10.4 | C[C@@H](NC(=O)Nc1cc2[nH]nc(C3CC3)c2cn1)c1ccc(Cl)cc1 [Example 150]
44 | 10.1 | Cc1cc(-c2n[nH]c3cc(NC(=O)NCc4ncc(Cl)cc4F)ncc23)ccn1 [Example 487]
45 | 6.25 | Cc1cc(-c2n[nH]c3c(Cl)c(NC(=O)NCc4ccccc4)ncc23)ccn1 [Example 92, 1-benzyl-3-[7-chloro-3-(2-methylpyridin-4-yl)-1H-pyrazolo[4,3-c]pyridin-6-yl]urea]
46 | 5.26 | COc1cncc(-c2n[nH]c3cc(NC(=O)N[C@H](C)c4ccc(F)cc4)ncc23)n1 [Example 251]
47 | 5.18 | CNC(=O)c1cc(F)ccc1CNC(=O)Nc1cc2[nH]nc(-c3ccnc(C)c3)c2cn1 [Example 518]

Row | IC50 [nM] | SMILES
48 | 4.42 | Cc1cc(-c2n[nH]c3cc(NC(=O)NCCC4CCOC4)ncc23)ccn1 (centres unmarked) [Example 387]
49 | 4 | Cc1cc(-c2n[nH]c3cc(NC(=O)NC4CCOC4)ncc23)ccn1 (centres unmarked) [Example 577]
50 | 3.06 | Cc1cc(-c2n[nH]c3cc(NC(=O)N[C@@H]4CN(CC(F)(F)F)C[C@H]4c4ccccc4)ncc23)ccn1 [Example 330]
51 | 2.94 | Cc1cc(-c2n[nH]c3cc(NC(=O)NCc4ccc(F)cc4C(F)(F)F)ncc23)ccn1 [Example 512]
52 | 2.91 | Cc1cc(-c2n[nH]c3cc(NC(=O)N[C@H](C)c4ccc(Cl)c(C)c4)ncc23)ccn1 [Example 341]
53 | 2.74 | Cc1cc(-c2n[nH]c3cc(NC(=O)NCC4COc5ccccc5O4)ncc23)ccn1 (centres unmarked) [Example 459]
54 | 1.95 | Cc1cc(-c2n[nH]c3cc(NC(=O)NCc4cnoc4)ncc23)ccn1 [Example 437]
55 | 1.58 | Cc1cc(-c2n[nH]c3cc(NC(=O)NCC4(C)CCCO4)ncc23)ccn1 (centres unmarked) [Example 463]
56 | 1.33 | C[C@@H](NC(=O)Nc1cc2[nH]nc(-c3ccc(S(C)(=O)=O)cc3)c2cn1)c1ccccc1 [Example 89, 1-{3-[4-(methylsulfonyl)phenyl]-1H-pyrazolo[4,3-c]pyridin-6-yl}-3-[(1R)-1-phenylethyl]urea]
57 | 1.3 | Cc1cc(-c2n[nH]c3cc(NC(=O)NCc4ccccc4Cl)ncc23)ccn1 [Example 439]
58 | 0.917 | Cc1cc(-c2n[nH]c3cc(NC(=O)N[C@@H]4C[C@H]4c4ccccc4)ncc23)ccn1 [Example 583]
59 | 0.8 | COCCNC(=O)Nc1cc2[nH]nc(-c3ccc4nn(C)cc4c3)c2cn1 [Example 626]
60 | 0.713 | Cc1cc(-c2n[nH]c3cc(NC(=O)NCc4cccc(Cl)c4)ncc23)ccn1 [Example 27, 1-(3-chlorobenzyl)-3-[3-(2-methylpyridin-4-yl)-1H-pyrazolo[4,3-c]pyridin-6-yl]urea]
61 | 0.535 | C[C@@H](NC(=O)Nc1cc2[nH]nc(-c3cnn(CC(C)(C)O)c3)c2cn1)c1ccccc1 [Example 639]
62 | 0.235 | Cc1cc(-c2n[nH]c3c(F)c(NC(=O)N[C@H](C)c4ccccc4)ncc23)ccn1 [Example 95, 1-[7-fluoro-3-(2-methylpyridin-4-yl)-1H-pyrazolo[4,3-c]pyridin-6-yl]-3-[(1R)-1-phenylethyl]urea]
63 | 0.193 | Cc1cc(-c2n[nH]c3cc(NC(=O)N[C@@H]4COC[C@H]4c4ccccc4)ncc23)ccn1 [Example 580]

Same assay, conditions: read-out: AERK2 IC50 (Active human ERK2 Activity Assay)

Row | SMILES | IC50 [nM]
64 | C[C@@H](NC(=O)Nc1cc2[nH]nc(-c3ccc(=O)n(C)c3)c2cn1)c1ccc(F)cc1 [Example 71, 1-[(1R)-1-(4-fluorophenyl)ethyl]-3-[3-(1-methyl-6-oxo-1,6-dihydropyridin-3-yl)-1H-pyrazolo[4,3-c]pyridin-6-yl]urea] | 0.2 to 1.7
65 | Cc1cc(-c2n[nH]c3cc(NC(=O)NCc4cncc(F)c4)ncc23)ccn1 [Example 51, 1-[(5-fluoropyridin-3-yl)methyl]-3-[3-(2-methylpyridin-4-yl)-1H-pyrazolo[4,3-c]pyridin-6-yl]urea] | 0.2 to 1.7

Next, values leading:

Row | IC50 [nM] | SMILES
66 | 0.2 to 1.7 | C[C@@H](NC(=O)Nc1cc2[nH]nc(-c3ccc(S(C)(=O)=O)cc3)c2cn1)c1ccccc1 [Example 89, 1-{3-[4-(methylsulfonyl)phenyl]-1H-pyrazolo[4,3-c]pyridin-6-yl}-3-[(1R)-1-phenylethyl]urea]
67 | 0.2 to 1.7 | Cc1cc(-c2n[nH]c3cc(NC(=O)NCc4cccc(Cl)c4)ncc23)ccn1 [Example 27, 1-(3-chlorobenzyl)-3-[3-(2-methylpyridin-4-yl)-1H-pyrazolo[4,3-c]pyridin-6-yl]urea]
68 | 0.2 to 1.7 | Cc1cc(-c2n[nH]c3c(F)c(NC(=O)N[C@H](C)c4ccccc4)ncc23)ccn1 [Example 95, 1-[7-fluoro-3-(2-methylpyridin-4-yl)-1H-pyrazolo[4,3-c]pyridin-6-yl]-3-[(1R)-1-phenylethyl]urea]
